Measurements as given in PMC3760808, “A New Approach to Control the Enigmatic Activity of Aldose Reductase” (PLoS ONE, 2013).
Values belong to the molecule of their own block, whether it stands above or below them.

Tests used:
[1] = molecular target: T1, bovine lens AR (Bos taurus, UniProt P16116); experiment: Kinetic parameters of substrate reduction by AR (double reciprocal plots); format: biochemical; conditions: 8 mU purified AR, pH 6.8, 37°C
T1 construct: AR was purified from bovine lens to electrophoretic homogeneity as described; from tissue; host or cells: bovine lens
Method: (§1) If not otherwise specified AR activity was determined at 37°C using 4.7 mM D, L-GAL as a substrate in 0.25 M sodium phosphate buffer pH 6.8 containing 0.38 M ammonium sulfate, 0.5 mM EDTA, and 0.2 mM NADPH. AR was purified from bovine lens to electrophoretic homogeneity as described. […] One unit of enzyme activity is the amount of enzyme that catalyzes the oxidation of 1 µmol of NADPH/min under the above-mentioned conditions. The k cat values were obtained on the basis of a molecular weight of AR of 34 KDa. The purified enzyme was stored at 4°C in a 10 mM sodium phosphate buffer pH 7.0 supplemented by 2 mM dithiothreitol and was extensively dialyzed against a 10 mM sodium phosphate buffer pH 7.0 before use.
(§2) The nominal concentrations of HNE and GS-HNE solutions used as substrates of AR were determined through a colorimetric assay. These values were confirmed by the total decrease in absorbance at 340 nm measured, in the presence of 0.2 mM NADPH, when HNE and GS-HNE were incubated in the presence of 8 and 150 mU of AR, respectively (Figure S1). When testing inhibitors that require DMSO to be solubilized, the same concentration of DMSO (0.7% v/v), was used in the assays both in the presence and absence of the inhibitors.
Figure 1 Double reciprocal plots for reduction of GAL, HNE and GS-HNE by bovine lens AR. Double reciprocal plots of initial rate measurements using of GAL (diamonds), HNE (squares) and GS-HNE (circles) as substrates. The assays were performed in standard conditions using 8 mU of purified AR. Error bars represent the standard deviations from at least three independent measurements.

[2] = test system: human skeletal muscle AR; parameters: method as in PMID 9890881, PMID 7599164; conditions: human skeletal muscle enzyme; cited from earlier work
[3] = test system: human placental recombinant AR; parameters: method as in PMID 9890881, PMID 7599164; conditions: human placental recombinant enzyme; cited from earlier work
[4] = test system: AR from bovine lens; parameters: method as in PMID 8554593, PMID 9445372; conditions: pH 6.0; cited from earlier work
[5] = test system: AR from bovine heart; parameters: method as in PMID 8554593, PMID 9445372; conditions: pH 6.0; cited from earlier work
[6] = molecular target: T2, purified bovine lens AR (Bos taurus, UniProt P16116); experiment: AR inhibition screening with GAL and HNE as substrates (differential inhibition); format: biochemical; conditions: for GAL/HNE differential inhibition (percentage inhibition with GAL minus percentage inhibition with HNE): 0.11 mM GAL vs 0.11 mM HNE, at inhibitor concentration giving 50% inhibition or maximal concentration tested; for inhibitory action on all the tested substrates (in words): substrates GAL, HNE, glucose (and GS-HNE), Figure 4
T2 construct: AR was purified from bovine lens to electrophoretic homogeneity as described; from tissue; host or cells: bovine lens
Method: as §1
The nominal concentrations of HNE and GS-HNE solutions used as substrates of AR were determined through a colorimetric assay. […] When testing inhibitors that require DMSO to be solubilized, the same concentration of DMSO (0.7% v/v), was used in the assays both in the presence and absence of the inhibitors.
Thus, the susceptibility of AR to the inhibition exerted by a series of compounds (including some well-known ARIs) was tested at various inhibitor concentrations, using both GAL and HNE as substrates. The results of this screening (Figure 2) are expressed as ”GAL/HNE differential inhibition”, i.e. the difference between the percentage inhibition observed using GAL as a substrate and the percentage inhibition observed using HNE as a substrate. This differential inhibition was calculated at the concentration of the inhibitor leading to 50% inhibition or, when 50% inhibition was not reached, at the maximal concentration tested.
Bars indicate the difference between the percentage inhibition observed using 0.11 mM GAL as substrate and the percentage inhibition using 0.11 mM HNE (differential inhibition). The difference was calculated at the concentration of the inhibitor leading to a 50% inhibition of the reaction more sensitive to the inhibitor (i.e. the reduction of GAL for compounds displaying a positive differential inhibition and the reduction HNE for compounds displaying a negative differential inhibition) or at the maximal concentration tested if 50% inhibition was not reached. […] Framed numbers (1 to 30) refer to the compounds tested as inhibitors.

[7] = molecular target: T2, purified bovine lens AR; experiment: AR inhibition with D-glucose as substrate; format: biochemical
Method: as §1, §2
Figure 3 Effect of D-glyceramide as differential AR inhibitor. Percentage residual activity was determined at various inhibitor concentrations using the following substrates: 0.11 mM of HNE (squares), GAL (diamonds), GS-HNE (circles) or 7 mM D-glucose (triangles). Error bars represent the standard deviations from at least three independent measurements.
Figure 5 Effect of compounds acting as differential AR inhibitors. Percentage residual activity was determined at various inhibitor concentrations using the following substrates: 0.11 mM HNE (squares), GAL (diamonds), GS-HNE (circles) or 7 mM D-glucose (triangles). Panels a and b refer to compounds 18 and 19, respectively. Error bars represent the standard deviations from at least three completely independent measurements including different enzyme preparations. […]

[8] = molecular target: T2, purified bovine lens AR; experiment: AR inhibition with GS-HNE as substrate; format: biochemical
Method: as §1, with “The purified enzyme was stored at 4°C in a 10 mM sodium phosphate buffer pH 7.0 supplemented by 2 mM dithiothreitol and was extensively dialyzed against a 10 mM sodium phosphate buffer pH 7.0 before use.” left out
The nominal concentrations of HNE and GS-HNE solutions used as substrates of AR were determined through a colorimetric assay. These values were confirmed by the total decrease in absorbance at 340 nm measured, in the presence of 0.2 mM NADPH, when HNE and GS-HNE were incubated in the presence of 8 and 150 mU of AR, respectively (Figure S1). […]
Figure 3 Effect of D-glyceramide as differential AR inhibitor. Percentage residual activity was determined at various inhibitor concentrations using the following substrates: 0.11 mM of HNE (squares), GAL (diamonds), GS-HNE (circles) or 7 mM D-glucose (triangles). […]
Figure 5 Effect of compounds acting as differential AR inhibitors. Percentage residual activity was determined at various inhibitor concentrations using the following substrates: 0.11 mM HNE (squares), GAL (diamonds), GS-HNE (circles) or 7 mM D-glucose (triangles). […]

SMILES: O=C1NC(=O)[C@@]2(CCOc3ccc(F)cc32)N1 [Compound 29, Sorbinil]
- GAL/HNE differential inhibition (percentage inhibition with GAL minus percentage inhibition with HNE) [6]: negligible
- inhibitory action on all the tested substrates (in words) [6]: potent inhibitory action on all the tested substrates

SMILES: CC(/C=C1\SC(=S)N(CC(=O)O)C1=O)=C\c1ccccc1 [Compound 30, Epalrestat]
- IC50 [6]: 0.0005 mM

SMILES: CCCCCC(O)C(CC=O)SC[C@H](NC(=O)CC[C@H](N)C(=O)O)C(=O)NCC(=O)O (stereo partly drawn) [GS-HNE, 3-glutathionyl-4-hydroxy-nonanal]
- Km [1]: 105 ± 6 µM
- k cat [1]: 0.683 ± 0.033 s⁻¹

SMILES: O=C(O)c1cn(Cc2ccccc2)c2ccnn2c1=O [Compound 18]
- inhibition of the AR catalyzed reduction of GS-HNE (in words) ([8]; 0.11 mM GS-HNE, Figure 5): able to inhibit, to a different extent
- type of inhibition, glucose reduction ([7]; 47 µM inhibitor, double reciprocal plots): competitive inhibition

SMILES: O=c1cc(-c2ccccc2)nc2cccc(O)n12 [Compound 3]
- inhibitory action on all the tested substrates (in words) [6]: inhibits the AR catalyzed reduction of all the tested substrates

Second part, led by results:

- Km [1]: 37 ± 1 µM
- k cat [1]: 0.8 ± 0.017 s⁻¹
SMILES: CCCCCC(O)/C=C/C=O (stereo not drawn) [HNE, 4-hydroxy-2,3-nonenal]
- Km [2]: 22 µM
- Km [3]: 28 ± 9 µM
- Km [4]: 8.8 ± 0.9 µM
- Km [5]: 7 ± 2 µM

- GAL/HNE differential inhibition (percentage inhibition with GAL minus percentage inhibition with HNE) [6]: significant
- effect on glucose reduction ([7]; data not shown): no effect
SMILES: NC(=O)[C@H](O)[C@@H](O)[C@H](O)[C@H](O)CO [Compound 26, D gluconamide, reference compound]

- Km [1]: 39 ± 4 µM
- k cat [1]: 0.783 ± 0.05 s⁻¹
SMILES: O=C[C@@H](O)CO [GAL, D, L-glyceraldehyde]

- IC50 ([6]; GAL as substrate, read-out: IC50 with GAL as substrate): ~10 mM
- IC50 ([8]; 0.11 mM GS-HNE as substrate, read-out: IC50, reduction of GS-HNE): ~8 mM
SMILES: NC(=O)[C@H](O)CO [Compound 21, D-Glyceramide]
- differential inhibition glucose/HNE (in words) ([7]; 7 mM D-glucose vs 0.11 mM HNE, Figure 3): observed only at rather high concentrations
